Reference: patent publication US20100074934A1, “MEDICAL IMPLANTS WITH A COMBINATION OF COMPOUNDS” (priority 2006, published 2010)

Tested on: chick chorioallantoic membrane (CAM)
Assay: chick chorioallantoic membrane (CAM) assay, inhibition of angiogenesis
Type: in vivo
Design: key: 0: normal vascularity; 1: lacking some microvascular movement; small avascular zone approximately 2 mm in diameter; 3: avascularity extending beyond the disk (6 mm in diameter)
Conditions: 2 day exposure
Experimental: Paclitaxel, dipyridamole, and a combination of paclitaxel and dipyridimole were tested in a chick chorioallantoic membrane (CAM) assay (A. Cevik Tufan and N. Lalae Satirglu-Tufanm Current Cancer Drug Targets, 2005, 5: 249-266) to measure inhibition of angiogenesis by the compounds.
Fertilized, domestic chick embryos were incubated for 4 days prior to shell-less culturing. In this procedure, the egg contents were emptied by cracking the shell, and allowing the contents of the egg to gently slide out. The egg contents were emptied into sterilized petri dishes and then covered with petri dish covers. These were then placed into an incubator at 37 degrees and 90% relative humidity for 4 days.
Paclitaxel (Hauser Lot 1492-16199A) was fixed at concentrations of 0.3 μg and 1 μg per 10 ul aliquot of 0.5% aqueous methylcellulose (disc). Dipyridamole (Aldrich 285676, Lot 064K157) was added to each fixed dose of paclitaxel at specific molar ratios of 1:3, 1:10, 1:1, 3:1, 10:1. Neat solvent (DMSO), paclitaxel at 0.3 μg and 1 μg per disc and the dipyridamole at 5.92 μg per disc were used as the individual controls. Ten microliter aliquots of this solution were dried on parafilm for 3 hours forming disks 2 mm in diameter. The dried disks containing the combination ratios and controls were then carefully placed at the growing edge of each CAM at day 7 of incubation. After a 2 day exposure ([…]) the vasculature was examined with the aid of a stereomicroscope. Liposyn II, a white opaque solution, was injected into the CAM to increase the visibility of the vascular details.
This imaging setup was used at a magnification of 160× which permitted the direct visualization of blood cells within the capillaries; thereby blood flow in areas of interest may be easily assessed and recorded. For this study, the inhibition of angiogenesis was defined as an area of the CAM (measuring 2-6 mm in diameter) lacking a capillary network and vascular blood flow. Throughout the experiments, avascular zones were assessed on a 4 point avascular gradient (Table 1). This scale represents the degree of overall inhibition with maximal inhibition represented as a 3 on the avascular gradient scale.

Row | Structure (SMILES) | Score (avascular gradient scale) (paclitaxel 1 μg/10 μL disc alone) | Score (avascular gradient scale) (dipyridamole 0.02 μg/10 μL disc alone) | Score (avascular gradient scale) (dipyridamole 0.06 μg/10 μL disc alone) | Score (avascular gradient scale) (dipyridamole 5.92 μg/10 μL disc alone)
1 | CC(=O)O[C@H]1C(=O)[C@@]2(C)[C@H]([C@H](OC(=O)c3ccccc3)[C@]3(O)C[C@H](OC(=O)[C@H](O)[C@@H](NC(=O)c4ccccc4)c4ccccc4)C(C)=C1C3(C)C)[C@]1(OC(C)=O)CO[C@@H]1C[C@@H]2O [Paclitaxel (control), paclitaxel] | 2 | – | – | –
2 | OCCN(CCO)c1nc(N2CCCCC2)c2nc(N(CCO)CCO)nc(N3CCCCC3)c2n1 [Dipyridamole (control), 2,6-bis(diethanolamino)-4,8-dipiperidinopyrimido(5,4-d) pyrimidine] | – | 0 | 0 | 0
